Among the data in patent publication US7420056B2, “Substituted bicyclic imidazo-3-ylamine compounds” (Gruenenthal GmbH, priority 2004, dated 2008) are inhibition values, retold here.

Molecules are shown by their SMILES.

mGluR5 receptor, sequence (I3LUI7 19-1212): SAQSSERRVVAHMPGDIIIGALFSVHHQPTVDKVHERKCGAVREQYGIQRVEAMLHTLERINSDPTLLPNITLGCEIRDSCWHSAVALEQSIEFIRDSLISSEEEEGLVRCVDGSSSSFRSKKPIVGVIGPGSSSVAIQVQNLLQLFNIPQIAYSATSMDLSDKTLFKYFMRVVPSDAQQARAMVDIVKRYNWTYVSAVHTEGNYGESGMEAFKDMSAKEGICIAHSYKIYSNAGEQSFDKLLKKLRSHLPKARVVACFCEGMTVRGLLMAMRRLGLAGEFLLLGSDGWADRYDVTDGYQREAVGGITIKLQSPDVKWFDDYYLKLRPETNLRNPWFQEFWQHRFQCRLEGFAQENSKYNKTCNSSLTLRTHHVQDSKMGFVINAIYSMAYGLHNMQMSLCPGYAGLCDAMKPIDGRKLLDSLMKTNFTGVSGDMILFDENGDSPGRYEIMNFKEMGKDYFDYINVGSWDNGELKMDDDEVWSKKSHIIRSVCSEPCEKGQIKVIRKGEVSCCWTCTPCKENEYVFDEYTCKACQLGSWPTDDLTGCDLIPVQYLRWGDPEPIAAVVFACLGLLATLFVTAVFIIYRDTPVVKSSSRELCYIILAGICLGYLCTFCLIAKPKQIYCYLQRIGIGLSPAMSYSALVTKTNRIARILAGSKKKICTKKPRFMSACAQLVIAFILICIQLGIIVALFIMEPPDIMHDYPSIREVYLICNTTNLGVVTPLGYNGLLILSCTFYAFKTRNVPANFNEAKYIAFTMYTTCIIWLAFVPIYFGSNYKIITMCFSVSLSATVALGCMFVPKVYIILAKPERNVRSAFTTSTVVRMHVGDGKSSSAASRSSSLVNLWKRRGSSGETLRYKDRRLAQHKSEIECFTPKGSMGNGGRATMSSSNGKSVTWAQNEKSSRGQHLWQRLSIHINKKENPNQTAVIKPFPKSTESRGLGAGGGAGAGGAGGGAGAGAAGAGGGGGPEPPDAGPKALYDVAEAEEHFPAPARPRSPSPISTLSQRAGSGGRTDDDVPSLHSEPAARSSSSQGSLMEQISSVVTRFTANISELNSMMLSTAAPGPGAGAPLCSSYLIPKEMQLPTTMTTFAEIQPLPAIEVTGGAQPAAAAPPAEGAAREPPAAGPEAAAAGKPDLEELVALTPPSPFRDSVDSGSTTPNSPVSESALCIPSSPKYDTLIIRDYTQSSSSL

The assay deals with mGluR5 receptor (Sus scrofa, UniProt I3LUI7). The experiment in a line: Affinity for the mGluR5 receptor: inhibition of 3[H]-MPEP binding in pig brain homogenate. The settings on record: 10 μM compound, 5 nM 3[H]-MPEP, read-out: mGluR5 receptor inhibition of ^3[H]-MPEP binding [10 μM] in % at a concentration of the example compounds of 10 μM. A digest of the protocol:
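Test compounds were screened at 10 μM for displacement of 5 nM [3H]-MPEP from pig brain homogenate (450 μg protein, pH 8.0 Hepes buffer) over 60 min at room temperature. After filtration, scintillation counting gave the read-out. 10 μM unlabelled MPEP set nonspecific binding.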
In the case of `CC(Nc1c(-c2cc(C#Cc3ccccc3)cs2)nc2cnccn12)c1ccccc1` (centres unmarked) [Example 213, N-(1-phenylethyl)-2-(4-(phenylethynyl)thiophen-2-yl)imidazo[1,2-a]pyrazin-3-amine], the inhibition at 10 µM was 84%.

With `CCCC(C)(C)Nc1c(-c2cc(C#Cc3ccccc3)cs2)nc2cnccn12` [Example 214, N-(2-methylpentan-2-yl)-2-(4-(phenylethynyl)thiophen-2-yl)imidazo[1,2-a]pyrazin-3-amine], the inhibition at 10 µM is 77%.

With `Cc1cc(Br)c2nc(-c3ccc(C#Cc4ccccn4)o3)c(NC3CCCCC3)n2c1` [Example 215, 8-bromo-N-cyclohexyl-6-methyl-2-(5-(pyridin-2-ylethynyl)furan-2-yl)imidazo[1,2-a]pyridin-3-amine], the inhibition at 10 µM came out at 51%.

Regarding `C(#Cc1ccc(-c2nc3cnccn3c2NC2CCCC2)o1)c1ccccc1` [Example 216, N-cyclopentyl-2-(5-(phenylethynyl)furan-2-yl)imidazo[1,2-a]pyrazin-3-amine], the inhibition at 10 µM was 49%.

With `COc1cccc(CCNc2c(-c3cc(C#Cc4ccccc4)cs3)nc3nc(C)ccn23)c1` [Example 217, N-(3-methoxyphenethyl)-7-methyl-2-(4-(phenylethynyl)thiophen-2-yl)imidazo[1,2-a]pyrimidin-3-amine], the inhibition at 10 µM came to 62%.

In the case of `CC(C)(C)CC(C)(C)Nc1c(-c2ccc(C#Cc3ccccc3)s2)nc2c(OCc3ccccc3)cccn12` [Example 218, 8-(benzyloxy)-2-(5-(phenylethynyl)thiophen-2-yl)-N-(2,4,4-trimethylpentan-2-yl)imidazo[1,2-a]pyridin-3-amine], the inhibition at 10 µM was 38%.

For `C(#Cc1csc(-c2nc3c(OCc4ccccc4)cccn3c2NC2CCCC2)c1)c1ccccc1` [Example 219, 8-(benzyloxy)-N-cyclopentyl-2-(4-(phenylethynyl)thiophen-2-yl)imidazo[1,2-a]pyridin-3-amine], the inhibition at 10 µM was determined as 33%.

With `CCCC(C)(C)Nc1c(-c2cc(C#Cc3ccccc3)cs2)nc2c(OCc3ccccc3)cccn12` [Example 220, 8-(benzyloxy)-N-(2-methylpentan-2-yl)-2-(4-(phenylethynyl)thiophen-2-yl)imidazo[1,2-a]pyridin-3-amine], the inhibition at 10 µM came to 31%.

As to `Fc1ccc(CNc2c(-c3ccc(C#Cc4ccccc4)o3)nc3ccc(Cl)cn23)cc1` [Example 221, 6-chloro-N-(4-fluorobenzyl)-2-(5-(phenylethynyl)furan-2-yl)imidazo[1,2-a]pyridin-3-amine], the inhibition at 10 µM turned out to be 40%.

As for `CCCCNc1c(-c2cc(C#Cc3ccccc3)cs2)nc2ccc(Br)c(C)n12` [Example 222, 6-bromo-N-butyl-5-methyl-2-(4-(phenylethynyl)thiophen-2-yl)imidazo[1,2-a]pyridin-3-amine], the inhibition at 10 µM worked out at 33%.

As for `Cc1cccn2c(Nc3ccco3)c(-c3ccc(C#Cc4ccccc4)o3)nc12` [Example 223, N-(furan-2-yl)-8-methyl-2-(5-(phenylethynyl)furan-2-yl)imidazo[1,2-a]pyridin-3-amine], the inhibition at 10 µM was 80%.

For the compound `C(#Cc1ccc(-c2nc3ccccn3c2Nc2ccco2)o1)c1ccccc1` [Example 224, N-(furan-2-yl)-2-(5-(phenylethynyl)furan-2-yl)imidazo[1,2-a]pyridin-3-amine], the inhibition at 10 µM turned out to be 69%.

As to `CCCc1ccn2c(Nc3ccco3)c(-c3ccc(C#Cc4ccccc4)o3)nc2c1` [Example 225, N-(furan-2-yl)-2-(5-(phenylethynyl)furan-2-yl)-7-propylimidazo[1,2-a]pyridin-3-amine], the inhibition at 10 µM amounted to 43%.

In the case of `Cc1cc(C)n2c(Nc3cccc(C(F)(F)F)c3)c(-c3cc(C#Cc4ccccc4)cs3)nc2n1` [Example 226, 5,7-dimethyl-2-(4-(phenylethynyl)thiophen-2-yl)-N-(3-(trifluoromethyl)phenyl)imidazo[1,2-a]pyrimidin-3-amine], the inhibition at 10 µM was 41%.

Turning to `Cc1cc(Br)cn2c(NCCc3ccc(Cl)cc3)c(-c3cc(C#Cc4ccccc4)cs3)nc12` [Example 227, 6-bromo-N-(4-chlorophenethyl)-8-methyl-2-(4-(phenylethynyl)thiophen-2-yl)imidazo[1,2-a]pyridin-3-amine], the inhibition at 10 µM stood at 61%.

In the case of `Clc1ccc(CCNc2c(-c3cc(C#Cc4ccccc4)cs3)nc3cc(-c4ccccc4)ccn23)cc1` [Example 228, N-(4-chlorophenethyl)-7-phenyl-2-(4-(phenylethynyl)thiophen-2-yl)imidazo[1,2-a]pyridin-3-amine], the inhibition at 10 µM came out at 43%.

For the compound `C(#Cc1csc(-c2nc3cc(-c4ccccc4)ccn3c2NCCc2ccccc2)c1)c1ccccc1` [Example 229, N-phenethyl-7-phenyl-2-(4-(phenylethynyl)thiophen-2-yl)imidazo[1,2-a]pyridin-3-amine], the inhibition at 10 µM was determined as 30%.

Turning to `Cc1cc(C)n2c(NCc3ccc(Cl)cc3)c(-c3cc(C#Cc4ccccc4)cs3)nc2c1` [Example 230, N-(4-chlorobenzyl)-5,7-dimethyl-2-(4-(phenylethynyl)thiophen-2-yl)imidazo[1,2-a]pyridin-3-amine], the inhibition at 10 µM was determined as 60%.

As to `Cc1c(Br)ccc2nc(-c3cc(C#Cc4ccccc4)cs3)c(NCc3ccc(Cl)cc3)n12` [Example 231, 6-bromo-N-(4-chlorobenzyl)-5-methyl-2-(4-(phenylethynyl)thiophen-2-yl)imidazo[1,2-a]pyridin-3-amine], the inhibition at 10 µM turned out to be 62%.

With `Cc1cc(Br)c2nc(-c3cc(C#Cc4ccccc4)cs3)c(NCc3ccc(Cl)cc3)n2c1` [Example 232, 8-bromo-N-(4-chlorobenzyl)-6-methyl-2-(4-(phenylethynyl)thiophen-2-yl)imidazo[1,2-a]pyridin-3-amine], the inhibition at 10 µM is 75%.

`CCCc1cccc2nc(-c3cc(C#Cc4ccccc4)cs3)c(NCCc3cccc(OC)c3)n12` [Example 233, N-(3-methoxyphenethyl)-2-(4-(phenylethynyl)thiophen-2-yl)-5-propylimidazo[1,2-a]pyridin-3-amine]: the inhibition at 10 µM was 75%.

Take `Cc1cc(Br)cn2c(NCCc3cccs3)c(-c3cc(C#Cc4ccccc4)cs3)nc12` [Example 234, 6-bromo-8-methyl-2-(4-(phenylethynyl)thiophen-2-yl)-N-(2-(thiophen-2-yl)ethyl)imidazo[1,2-a]pyridin-3-amine]: the inhibition at 10 µM was determined as 64%.

Turning to `C(#Cc1csc(-c2nc3cc(-c4ccccc4)ccn3c2NCCc2cccs2)c1)c1ccccc1` [Example 235, 7-phenyl-2-(4-(phenylethynyl)thiophen-2-yl)-N-(2-(thiophen-2-yl)ethyl)imidazo[1,2-a]pyridin-3-amine], the inhibition at 10 µM was 32%.

Regarding `CCCC(C)(C)Nc1c(-c2ccc(C#Cc3ccccc3)s2)nc2c(Br)cc(Br)cn12` [Example 236, 6,8-dibromo-N-(2-methylpentan-2-yl)-2-(5-(phenylethynyl)thiophen-2-yl)imidazo[1,2-a]pyridin-3-amine], the inhibition at 10 µM stood at 66%.

As to `Cc1cccc(C)c1Nc1c(-c2cc(C#Cc3ccccc3)cs2)nc2c(C)cc(Br)cn12` [Example 237, 6-bromo-N-(2,6-dimethylphenyl)-8-methyl-2-(4-(phenylethynyl)thiophen-2-yl)imidazo[1,2-a]pyridin-3-amine], the inhibition at 10 µM stood at 36%.

With `C(#Cc1ccccn1)c1cccc(-c2nc3cnccn3c2NC2CCCCC2)c1` [Example 238, N-cyclohexyl-2-(3-(pyridin-2-ylethynyl)phenyl)imidazo[1,2-a]pyrazin-3-amine], the inhibition at 10 µM is 92%.

With `CC(C)(C)CC(C)(C)Nc1c(-c2cccc(C#Cc3ccccn3)c2)nc2cnccn12` [Example 239, 2-(3-(pyridin-2-ylethynyl)phenyl)-N-(2,4,4-trimethylpentan-2-yl)imidazo[1,2-a]pyrazin-3-amine], the inhibition at 10 µM is 60%.

As for `C(#Cc1ccccn1)c1ccc(-c2nc3cnccn3c2NC2CCCC2)cc1` [Example 240, N-cyclopentyl-2-(4-(pyridin-2-ylethynyl)phenyl)imidazo[1,2-a]pyrazin-3-amine], the inhibition at 10 µM was found to be 95%.

On to `CC(C)(C)CC(C)(C)Nc1c(-c2ccc(C#Cc3ccccn3)cc2)nc2c(Cl)cc(C(F)(F)F)cn12` [Example 241, 8-chloro-2-(4-(pyridin-2-ylethynyl)phenyl)-6-(trifluoromethyl)-N-(2,4,4-trimethylpentan-2-yl)imidazo[1,2-a]pyridin-3-amine], for which the inhibition at 10 µM was found to be 65%.

As for `Fc1ccc(Nc2c(-c3ccc(C#Cc4ccccn4)cc3)nc3cnccn23)cc1` [Example 242, N-(4-fluorophenyl)-2-(4-(pyridin-2-ylethynyl)phenyl)imidazo[1,2-a]pyrazin-3-amine], the inhibition at 10 µM was determined as 91%.

As to `Cc1nc(C#Cc2ccccc2)ccc1-c1nc2cnccn2c1NC1CCCC1` [Example 243, N-cyclopentyl-2-(2-methyl-6-(phenylethynyl)pyridin-3-yl)imidazo[1,2-a]pyrazin-3-amine], the inhibition at 10 µM worked out at 80%.

For `Cc1nc(C#Cc2ccccc2)ccc1-c1nc2cnccn2c1NC1CCCCC1` [Example 244, N-cyclohexyl-2-(2-methyl-6-(phenylethynyl)pyridin-3-yl)imidazo[1,2-a]pyrazin-3-amine], the inhibition at 10 µM came out at 54%.

As for `C(#Cc1ccc(-c2nc3cnccn3c2NC2CCCC2)o1)c1ccccn1` [Example 245, N-cyclopentyl-2-(5-(pyridin-2-ylethynyl)furan-2-yl)imidazo[1,2-a]pyrazin-3-amine], the inhibition at 10 µM was found to be 92%.

`Cc1cc(Br)c2nc(-c3ccc(C#Cc4ccccn4)o3)c(NC3CCCC3)n2c1` [Example 246, 8-bromo-N-cyclopentyl-6-methyl-2-(5-(pyridin-2-ylethynyl)furan-2-yl)imidazo[1,2-a]pyridin-3-amine]: the inhibition at 10 µM came out at 74%.

As to `C(#Cc1ccc(-c2nc3cnccn3c2NC2CCCCC2)o1)c1ccccn1` [Example 247, N-cyclohexyl-2-(5-(pyridin-2-ylethynyl)furan-2-yl)imidazo[1,2-a]pyrazin-3-amine], the inhibition at 10 µM is 83%.
